Values joined by “and” are separate entries in the source; they are usually repeats but may differ in a detail not shown here. Equal values may be shown once. Toxic doses and inconclusive results are not listed.
Test system: CD2F1 mice, L1210 leukemia ip, survival T/C
Experiment: NCI In Vivo Anticancer Drug Screen. Data for tumor model L1210 Leukemia (intraperitoneal) in CD2F1 (CDF1) mice
Details: higher = longer survival
How it was run: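 Ratio T/C, where T is the treated-group value and C the vehicle-dosed control value, from mice implanted with a transplantable tumor.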

[1] = endpoint: mean survival time, dose: 50.0 mg/kg/injection, schedule: Q01DX009 (ip), vehicle: Klucel (hydroxypropylcellulose) (HPC)
[2] = endpoint: mean survival time, dose: 100.0 mg/kg/injection, schedule: Q01DX009 (ip), vehicle: Klucel (hydroxypropylcellulose) (HPC)
[3] = endpoint: mean survival time, dose: 200.0 mg/kg/injection, schedule: Q01DX009 (ip), vehicle: Klucel (hydroxypropylcellulose) (HPC)
[4] = endpoint: mean survival time, dose: 100.0 mg/kg/injection, schedule: Q01DX001 (ip), vehicle: saline with Tween-80
[5] = endpoint: mean survival time, dose: 200.0 mg/kg/injection, schedule: Q01DX001 (ip), vehicle: saline with Tween-80
[6] = endpoint: mean survival time, dose: 400.0 mg/kg/injection, schedule: Q01DX001 (ip), vehicle: saline with Tween-80
[7] = endpoint: mean survival time, dose: 100.0 mg/kg/injection, schedule: Q04DX002 (ip), vehicle: saline with Tween-80
[8] = endpoint: mean survival time, dose: 200.0 mg/kg/injection, schedule: Q04DX002 (ip), vehicle: saline with Tween-80
[9] = endpoint: mean survival time, dose: 400.0 mg/kg/injection, schedule: Q04DX002 (ip), vehicle: saline with Tween-80
[10] = endpoint: mean survival time, dose: 100.0 mg/kg/injection, schedule: Q01DX009 (ip), vehicle: saline with Tween-80
[11] = endpoint: mean survival time, dose: 200.0 mg/kg/injection, schedule: Q01DX009 (ip), vehicle: saline with Tween-80
[12] = endpoint: mean survival time, dose: 400.0 mg/kg/injection, schedule: Q01DX009 (ip), vehicle: saline with Tween-80
[13] = endpoint: mean survival time, dose: 100.0 mg/kg/injection, schedule: Q04DX003 (ip), vehicle: saline with Tween-80
[14] = endpoint: mean survival time, dose: 200.0 mg/kg/injection, schedule: Q04DX003 (ip), vehicle: saline with Tween-80
[15] = endpoint: mean survival time, dose: 400.0 mg/kg/injection, schedule: Q04DX003 (ip), vehicle: saline with Tween-80
[16] = endpoint: mean survival time, dose: 50.0 mg/kg/injection, schedule: Q01DX009 (ip), vehicle: saline with Tween-80

With C[C@@H]1C[C@H]2[C@@H]3CCC4=CC(=O)C=C[C@]4(C)[C@@]3(F)[C@@H](O)C[C@]2(C)[C@@]1(O)C(=O)CO the T/C (endpoint: mean survival time, dose: 3.12 mg/kg/injection, schedule: Q01DX009 (ip), vehicle: suspension in saline) was 116 % of control, the T/C (endpoint: mean survival time, dose: 6.25 mg/kg/injection, schedule: Q01DX009 (ip), vehicle: suspension in saline) was 108 % of control and the T/C (endpoint: mean survival time, dose: 12.5 mg/kg/injection, schedule: Q01DX009 (ip), vehicle: suspension in saline) was 108 % of control. The T/C (endpoint: mean survival time, dose: 25.0 mg/kg/injection, schedule: Q01DX009 (ip), vehicle: suspension in saline) was 122 % of control and the T/C (endpoint: mean survival time, dose: 50.0 mg/kg/injection, schedule: Q01DX009 (ip), vehicle: suspension in saline) was 110 % of control.
With CCC1(OC(=O)CNC)C(=O)OCc2c1cc1n(c2=O)Cc2cc3ccccc3nc2-1 (stereo unspecified) the T/C (endpoint: median survival time, dose: 7.5 mg/kg/injection, schedule: Q04DX002 (ip), vehicle: saline) was 124 % of control, the T/C (endpoint: median survival time, dose: 15.0 mg/kg/injection, schedule: Q04DX002 (ip), vehicle: saline) was 160 % of control and 162 % of control and the T/C (endpoint: median survival time, dose: 30.0 mg/kg/injection, schedule: Q04DX002 (ip), vehicle: saline) was 239 % of control. The T/C (endpoint: median survival time, dose: 60.0 mg/kg/injection, schedule: Q04DX002 (ip), vehicle: saline) was 108 % of control.
Oc1c(Cl)cc(C(c2cc(Cl)c(O)c(Cl)c2)C(c2cc(Cl)c(O)c(Cl)c2)c2cc(Cl)c(O)c(Cl)c2)cc1Cl was tested, and the T/C (endpoint: mean survival time, dose: 12.5 mg/kg/injection, schedule: Q01DX009 (ip), vehicle: Klucel (hydroxypropylcellulose) (HPC)) was 95 % of control, the T/C (endpoint: mean survival time, dose: 25.0 mg/kg/injection, schedule: Q01DX009 (ip), vehicle: Klucel (hydroxypropylcellulose) (HPC)) was 97 % of control and the T/C [1] was 103 % of control. The T/C [2] was 106 % of control, the T/C [3] was 115 % of control and the T/C (endpoint: mean survival time, dose: 400.0 mg/kg/injection, schedule: Q01DX009 (ip), vehicle: Klucel (hydroxypropylcellulose) (HPC)) was 96 % of control.
With O=C1OCC2C1Cc1cc(O)c(O)cc1C2c1ccc(O)c(O)c1 (stereo unspecified) the T/C [1] was 96 % of control, the T/C [2] was 101 % of control and the T/C [3] was 104 % of control.
N#C/C(=C/c1ccc(Cl)cc1)C(N)=O was tested, and the T/C (endpoint: mean survival time, dose: 12.5 mg/kg/injection, schedule: Q04DX003 (ip), vehicle: Klucel (hydroxypropylcellulose) (HPC)) was 96 % of control and 98 % of control, the T/C (endpoint: mean survival time, dose: 25.0 mg/kg/injection, schedule: Q04DX003 (ip), vehicle: Klucel (hydroxypropylcellulose) (HPC)) was 93 % of control and 95 % of control and the T/C (endpoint: mean survival time, dose: 50.0 mg/kg/injection, schedule: Q04DX003 (ip), vehicle: Klucel (hydroxypropylcellulose) (HPC)) was 100 % of control and 104 % of control. For the same molecule, the T/C [4] was 121 % of control, the T/C (endpoint: mean survival time, dose: 100.0 mg/kg/injection, schedule: Q04DX003 (ip), vehicle: Klucel (hydroxypropylcellulose) (HPC)) was 100 % of control and 101 % of control and the T/C [5] was 111 % of control. For the same molecule, the T/C [6] was 101 % of control.
For CCOC(=O)S(=O)(=O)c1ccc(C)cc1, the T/C (endpoint: mean survival time, dose: 100.0 mg/kg/injection, schedule: Q01DX009 (ip), vehicle: acetone) was 101 % of control, the T/C (endpoint: mean survival time, dose: 200.0 mg/kg/injection, schedule: Q01DX009 (ip), vehicle: acetone) was 109 % of control and the T/C (endpoint: mean survival time, dose: 400.0 mg/kg/injection, schedule: Q01DX009 (ip), vehicle: acetone) was 114 % of control.
With CC(=O)c1ccc(Cl)cc1Cl the T/C (endpoint: mean survival time, dose: 25.0 mg/kg/injection, schedule: Q01DX001 (ip), vehicle: other) was 104 % of control, the T/C (endpoint: mean survival time, dose: 50.0 mg/kg/injection, schedule: Q01DX001 (ip), vehicle: other) was 102 % of control and the T/C (endpoint: mean survival time, dose: 100.0 mg/kg/injection, schedule: Q01DX001 (ip), vehicle: other) was 95 % of control.
In the case of CC(=N\O)/C(C)=N/O.CC(=N\O)/C(C)=N/O.CCCC1CC[N-]CC1.CCCC1CC[N-]CC1.CCCC1CC[N-]CC1.CCCC1CC[N-]CC1.[Cl-].[Cl-].[Cl][Rh][Cl].[Rh+3], the T/C (endpoint: mean survival time, dose: 6.25 mg/kg/injection, schedule: Q01DX009 (ip), vehicle: water) is reported as 97 % of control, the T/C (endpoint: mean survival time, dose: 6.25 mg/kg/injection, schedule: Q04DX003 (ip), vehicle: water) is reported as 86 % of control and the T/C (endpoint: mean survival time, dose: 12.5 mg/kg/injection, schedule: Q04DX003 (ip), vehicle: water) is reported as 94 % of control. The T/C (endpoint: mean survival time, dose: 25.0 mg/kg/injection, schedule: Q01DX009 (ip), vehicle: water) was 88 % of control and the T/C (endpoint: mean survival time, dose: 25.0 mg/kg/injection, schedule: Q04DX003 (ip), vehicle: water) was 86 % of control.
For CC(N)(CO)C(=O)O (stereo unspecified), the T/C (endpoint: mean survival time, dose: 100.0 mg/kg/injection, schedule: Q04DX003 (ip), vehicle: saline) was 108 % of control, the T/C (endpoint: mean survival time, dose: 200.0 mg/kg/injection, schedule: Q04DX003 (ip), vehicle: saline) was 113 % of control and the T/C (endpoint: mean survival time, dose: 400.0 mg/kg/injection, schedule: Q04DX003 (ip), vehicle: saline) was 103 % of control.
In the case of NC(CN1CCCCC1)C(=O)O (stereo unspecified), the T/C [7] is reported as 98 % of control, the T/C [8] is reported as 90 % of control and the T/C [9] is reported as 94 % of control.
For OCC(F)(F)C(F)(F)C(F)(F)F, the T/C (endpoint: mean survival time, dose: 75.0 mg/kg/injection, schedule: Q01DX009 (ip), vehicle: saline) was 95 % of control, the T/C (endpoint: mean survival time, dose: 150.0 mg/kg/injection, schedule: Q01DX009 (ip), vehicle: saline) was 95 % of control and the T/C (endpoint: mean survival time, dose: 300.0 mg/kg/injection, schedule: Q01DX009 (ip), vehicle: saline) was 103 % of control. For the same molecule, the T/C (endpoint: mean survival time, dose: 600.0 mg/kg/injection, schedule: Q01DX009 (ip), vehicle: saline) was 86 % of control.
In the case of CCOC(=O)C(CO)(NC(C)=O)C(=O)OCC, the T/C [10] is reported as 94 % of control, the T/C [11] is reported as 98 % of control and the T/C [12] is reported as 105 % of control.
In the case of CCOC(=O)NCC(Cl)CP(=O)(c1ccccc1)c1ccccc1 (stereo unspecified), the T/C [4] is reported as 92 % of control, the T/C [10] is reported as 97 % of control and the T/C [5] is reported as 92 % of control. For the same molecule, the T/C [11] was 97 % of control, the T/C [6] was 92 % of control and the T/C [12] was 96 % of control.
For CCCCCCCCCCCCCC[n+]1ccccc1, the T/C (endpoint: mean survival time, dose: 0.07 mg/kg/injection, schedule: Q01DX009 (ip), vehicle: saline) was 93 % of control, the T/C (endpoint: mean survival time, dose: 0.13 mg/kg/injection, schedule: Q01DX009 (ip), vehicle: saline) was 101 % of control and the T/C (endpoint: mean survival time, dose: 0.25 mg/kg/injection, schedule: Q01DX009 (ip), vehicle: saline) was 103 % of control. For the same molecule, the T/C (endpoint: mean survival time, dose: 0.25 mg/kg/injection, schedule: Q04DX003 (ip), vehicle: saline sonified) was 102 % of control.
With CCOC(=O)C(C)S(=O)(=O)O (stereo unspecified) the T/C (endpoint: mean survival time, dose: 100.0 mg/kg/injection, schedule: Q04DX002 (ip), vehicle: saline) was 91 % of control, the T/C (endpoint: mean survival time, dose: 200.0 mg/kg/injection, schedule: Q04DX002 (ip), vehicle: saline) was 100 % of control and the T/C (endpoint: mean survival time, dose: 400.0 mg/kg/injection, schedule: Q04DX002 (ip), vehicle: saline) was 100 % of control.
With N#CC(c1ccccc1)C(CC(=O)c1ccccc1)c1ccccc1 (stereo unspecified) the T/C [10] was 88 % of control, the T/C [13] was 100 % of control and the T/C [11] was 88 % of control. The T/C [14] was 96 % of control and the T/C [15] was 103 % of control.
COC(=O)c1cccn1C(=O)c1ccc(C)c(OCc2ccccc2)c1[N+](=O)[O-] was tested, and the T/C [7] was 86 % of control, the T/C [8] was 93 % of control and the T/C [9] was 93 % of control.
CC(C(=O)O)C1CCC2C3CC=C4CC(O)CCC4(C)C3CCC12C (stereo unspecified) was tested, and the T/C [13] was 99 % of control, the T/C [14] was 100 % of control and the T/C [15] was 100 % of control.
For COC1=CC(=O)C(OC)=C(OC)C1=O, the T/C (endpoint: mean survival time, dose: 3.12 mg/kg/injection, schedule: Q01DX009 (ip), vehicle: saline with Tween-80) was 94 % of control, the T/C (endpoint: mean survival time, dose: 6.25 mg/kg/injection, schedule: Q01DX009 (ip), vehicle: saline with Tween-80) was 97 % of control and the T/C (endpoint: mean survival time, dose: 12.5 mg/kg/injection, schedule: Q01DX009 (ip), vehicle: saline with Tween-80) was 97 % of control. The T/C (endpoint: mean survival time, dose: 25.0 mg/kg/injection, schedule: Q01DX009 (ip), vehicle: saline with Tween-80) was 100 % of control and the T/C [16] was 105 % of control.
CN(C)Cc1cc(OCc2ccccc2)cc(CN(C)C)c1O was tested, and the T/C (endpoint: mean survival time, dose: 75.0 mg/kg/injection, schedule: Q01DX001 (ip), vehicle: saline) was 108 % of control.
For Cc1ccc(CCl)cc1, the T/C [16] was 115 % of control and the T/C [10] was 92 % of control.
With O=P1(NCCCl)OC(c2ccccc2)=CCN1CCCl (stereo unspecified) the T/C (endpoint: median survival time, dose: 31.25 mg/kg/injection, schedule: Q01DX001 (ip), vehicle: distilled water + Tween-80) was 102 % of control, the T/C (endpoint: median survival time, dose: 62.5 mg/kg/injection, schedule: Q01DX001 (ip), vehicle: distilled water + Tween-80) was 97 % of control and the T/C (endpoint: median survival time, dose: 125.0 mg/kg/injection, schedule: Q01DX001 (ip), vehicle: distilled water + Tween-80) was 97 % of control. The T/C (endpoint: median survival time, dose: 250.0 mg/kg/injection, schedule: Q01DX001 (ip), vehicle: distilled water + Tween-80) was 101 % of control and the T/C (endpoint: median survival time, dose: 500.0 mg/kg/injection, schedule: Q01DX001 (ip), vehicle: distilled water + Tween-80) was 93 % of control.
